Laboratory results from publication PMC9672040, “Identification of purine biosynthesis as an NADH-sensing pathway to mediate energy stress” (Nature Communications, 2022).
Where two headings read alike, the source gives them in different places. Blank lines part the entries; values can stand above or below the molecule they belong to.

Tests used:
[1] = molecular target: T1, PRPS1 (Homo sapiens, UniProt P60891); assay: biochemical; parameters: PRPS1/2 activity by ATP consumption, Kinase-Glo luminescence
T1 construct: His-tagged, pET-28a, expressed in E. coli BL21, Ni-Sepharose purified
T1 sequence (P60891 2-318): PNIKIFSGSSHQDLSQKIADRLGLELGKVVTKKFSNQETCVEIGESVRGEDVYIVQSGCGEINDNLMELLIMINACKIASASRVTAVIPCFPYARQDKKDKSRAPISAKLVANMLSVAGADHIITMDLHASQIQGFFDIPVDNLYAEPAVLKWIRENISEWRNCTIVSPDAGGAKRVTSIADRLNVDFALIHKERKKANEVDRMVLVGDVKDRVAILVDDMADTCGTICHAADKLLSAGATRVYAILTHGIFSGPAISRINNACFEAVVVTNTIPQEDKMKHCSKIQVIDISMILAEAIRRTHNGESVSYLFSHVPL

[2] = molecular target: T2, PRPS2 (Homo sapiens, UniProt P11908); assay: biochemical; parameters: PRPS1/2 activity by ATP consumption, Kinase-Glo luminescence
T2 construct: His-tagged, pET-28a, expressed in E. coli BL21, Ni-Sepharose purified; the AlphaFold id for docking (AF-P60891-F1) is that of PRPS1
T2 sequence (P11908 2-318): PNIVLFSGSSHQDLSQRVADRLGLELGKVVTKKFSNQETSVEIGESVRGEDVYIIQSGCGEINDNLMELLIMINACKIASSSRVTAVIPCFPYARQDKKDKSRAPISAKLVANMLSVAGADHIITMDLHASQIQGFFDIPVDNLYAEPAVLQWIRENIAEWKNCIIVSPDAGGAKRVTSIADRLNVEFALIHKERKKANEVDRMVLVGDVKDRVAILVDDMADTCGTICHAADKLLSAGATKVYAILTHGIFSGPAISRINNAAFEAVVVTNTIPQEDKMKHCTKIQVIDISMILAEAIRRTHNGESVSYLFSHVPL

[3] = molecular target: T2, PRPS2; assay: ATP consumption, Kinase-Glo; type: biochemical; settings: 300 µM ATP, 300 µM R-5-P, 5 mM MgCl2, 5 mM Na3PO4, pH 7.5, 37 °C; allosteric effector
[4] = molecular target: T1, PRPS1; assay: ATP consumption, Kinase-Glo; type: biochemical; settings: 300 µM ATP, 300 µM R-5-P, 5 mM MgCl2, 5 mM Na3PO4, pH 7.5, 37 °C; allosteric effector
[5] = tested on: T3, HeLa Tet-on EcSTH-LbNOX; assay: cells; parameters: Sensitivity of HeLa cells to menadione, proliferation after 48 h; settings: Homo sapiens, 48 h, Dox-, read-out: IC50 menadione
T3 construct: HeLa with inducible Tet-on EcSTH-LbNOX, not induced

[6] = tested on: T4, HeLa Tet-on EcSTH; assay: cells; parameters: Sensitivity of HeLa cells to menadione, proliferation after 48 h; settings: Homo sapiens, 48 h, Dox-, read-out: IC50 menadione
T4 construct: HeLa with inducible Tet-on EcSTH, not induced
Procedure: From top to bottom: **P < 0.0001, **P < 0.0001, **P < 0.0001, two-way ANOVA. d Effects of EGFP, EcSTH, LbNOX, or EcSTH-LbNOX expression on colony formation in HeLa cells cultured with Dox, as indicated, for 10 days (n = 3 biologically independent samples). From left to right: *P = 0.013, **P = 0.0001, **P = 6.58e-07, two-tailed Student’s t-tests. e The in vivo tumor growth of HeLa cells expressing inducible Tet-on EcSTH or EcSTH-LbNOX (n = 5 biologically independent animals). 2 mg/mL Dox was added in drinking water on day 10 and updated every two days. **P < 0.0001, two-way ANOVA. f Effects of α-KB treatment on proliferation of HeLa^Tet-on EcSTH cells. Cells were counted after treatment with Dox (1 µg/mL) and α-KB (1 or 2 mM) for 48 h (n = 4 biologically independent samples). From left to right: **P = 2.44e-06, **P = 1.85e-06, two-tailed Student’s t-tests. g Effects of inhibitors on proliferation of HeLa^Tet-on EcSTH cells. Cells were pretreated with the indicated inhibitors for 2 h, and cells were counted after treatment with Dox (1 µg/mL) for 48 h (n = 3 biologically independent samples). z-VAD (z-VAD-FMK, 20 µM), NSA (necrosulfonamide, 10 µM), Ferr-1 (Ferrostain-1, 5 µM). […] Cell apoptosis was measured by Flow cytometry after treatment with Dox (1 µg/mL) and α-KB (2 mM) for 24 h (n = 3 biologically independent samples). […]

[7] = molecular target: T2, PRPS2; assay: SPR (Biacore T200), His-PRPS2 immobilized on CM5 chip; type: binding; settings: read-out: dissociation constant
[8] = tested on: T5, EcSTH-LbNOX; assay: thio-NAD+ reduction at […] nm / NADPH depletion at […] nm; type: biochemical, Escherichia coli; settings: 50 mM Tris-HCl pH 7.5, 10 μM FAD, 35 °C, EcSTH site
T5 construct: gene sthA; single-chain fusion EcSTH-Flag-LbNOX, three tandem Flag peptides as linker, expressed in HeLa cells, anti-Flag M2 purified; with NADH oxidase (water-forming)

[9] = substrate: NC(=O)C1=CN([C@@H]2O[C@H](COP(=O)(O)OP(=O)(O)OC[C@H]3O[C@@H](n4cnc5c(N)ncnc54)[C@H](O)[C@@H]3O)[C@@H](O)[C@H]2O)C=CC1; assay: purified protein; settings: 50 mM Tris-HCl pH 7.5, 10 μM FAD, 35 °C
[10] = substrate: NC(=O)C1=CN([C@@H]2O[C@H](COP(=O)(O)OP(=O)(O)OC[C@H]3O[C@@H](n4cnc5c(N)ncnc54)[C@H](OP(=O)(O)O)[C@@H]3O)[C@@H](O)[C@H]2O)C=CC1; assay: purified protein; type: biochemical, Escherichia coli; settings: 400 µM thio-NAD+, 50 mM Tris-HCl pH 7.5, 10 μM FAD, 35 °C
[11] = substrate: NC(=S)c1ccc[n+]([C@@H]2O[C@H](COP(=O)(O)OP(=O)(O)OC[C@H]3O[C@@H](n4cnc5c(N)ncnc54)[C@H](O)[C@@H]3O)[C@@H](O)[C@H]2O)c1; assay: purified protein; type: biochemical, Escherichia coli; settings: 400 µM NADPH, 50 mM Tris-HCl pH 7.5, 10 μM FAD, 35 °C

IC50 ([1]; read-out: IC50 of ADP (PRPS1)): 41.3 µM
IC50 ([2]; read-out: IC50 of ADP (PRPS2)): 77.4 µM
Molecule: Nc1ncnc2c1ncn2[C@@H]1O[C@H](COP(=O)(O)OP(=O)(O)O)[C@@H](O)[C@H]1O [ADP]

IC50 ([1]; read-out: IC50 of GDP (PRPS1)): 171 µM
IC50 ([2]; read-out: IC50 of GDP (PRPS2)): 251 µM
Molecule: Nc1nc2c(ncn2[C@@H]2O[C@H](COP(=O)(O)OP(=O)(O)O)[C@@H](O)[C@H]2O)c(=O)[nH]1 [GDP]
ATP consumption, Kinase-Glo [3]: protected PRPS2 against inhibition by ADP, but not against that by GDP
ATP consumption, Kinase-Glo [4]: NADH and NAD^+ exerted no effect on the suppression of PRPS1 by ADP or GDP

IC50 [5]: 27.4 µM
IC50 [6]: 27.8 µM
Molecule: CC1=CC(=O)c2ccccc2C1=O [Menadione]

Kd [7]: 118 µM
Molecule: NC(=O)C1=CN([C@@H]2O[C@H](COP(=O)(O)OP(=O)(O)OC[C@H]3O[C@@H](n4cnc5c(N)ncnc54)[C@H](O)[C@@H]3O)[C@@H](O)[C@H]2O)C=CC1 [NADH]

Km ([8]; 400 µM thio-NAD+): 194 µM
Molecule: NC(=O)C1=CN([C@@H]2O[C@H](COP(=O)(O)OP(=O)(O)OC[C@H]3O[C@@H](n4cnc5c(N)ncnc54)[C@H](OP(=O)(O)O)[C@@H]3O)[C@@H](O)[C@H]2O)C=CC1 [NADPH]

Km ([8]; 400 µM NADPH): 272 µM
Molecule: NC(=S)c1ccc[n+]([C@@H]2O[C@H](COP(=O)(O)OP(=O)(O)OC[C@H]3O[C@@H](n4cnc5c(N)ncnc54)[C@H](O)[C@@H]3O)[C@@H](O)[C@H]2O)c1 [thio-NAD^+]

B1: LbNOX (Levilactobacillus brevis ATCC 367) (protein)
chain: MKVTVVGCTHAGTFAIKQILAEHPDAEVTVYERNDVISFLSCGIALYLGGKVADPQGLFYSSPEELQKLGANVQMNHNVLAIDPDQKTVTVEDLTNHAQTTESYDKLVMTSGSWPIVPKIPGIDSDRVKLCKNWAHAQALIEDAKEAKRITVIGAGYIGAELAEAYSTTGHDVTLIDAMARVMPKYFDADFTDVIEQDYRDHGVQLALGETVESFTDSATGLTIKTDKNSYETDLAILCIGFRPNTDLLKGKVDMAPNGAIITDDYMRSSNPDIFAAGDSAAVHYNPTHQNAYIPLATNAVRQGILVGKNLVKPTVKYMGTQSSSGLALYDRTIVSTGLTLAAAKQQGLNAEQVIVEDNYRPEFMPSTEPVLMSLVFDPDTHRILGGALMSKYDVSQSANTLSVCIQNENTIDDLAMVDMLFQPNFDRPFNYLNILAQAAQAKVAQSVNA
Km [9]: 88.73 µM
kcat [9]: 836.55 s⁻¹

B2: EcSTH (Escherichia coli K-12) (protein)
chain: PHSYDYDAIVIGSGPGGEGAAMGLVKQGARVAVIERYQNVGGGCTHWGTIPSKALRHAVSRIIEFNQNPLYSDHSRLLRSSFADILNHADNVINQQTRMRQGFYERNHCEILQGNARFVDEHTLALDCPDGSVETLTAEKFVIACGSRPYHPTDVDFTHPRIYDSDSILSMHHEPRHVLIYGAGVIGCEYASIFRGMDVKVDLINTRDRLLAFLDQEMSDSLSYHFWNSGVVIRHNEEYEKIEGCDDGVIMHLKSGKKLKADCLLYANGRTGNTDSLALQNIGLETDSRGQLKVNSMYQTAQPHVYAVGDVIGYPSLASAAYDQGRIAAQALVKGEATAHLIEDIPTGIYTIPEISSVGKTEQQLTAMKVPYEVGRAQFKHLARAQIVGMNVGTLKILFHRETKEILGIHCFGERAAEIIHIGQAIMEQKGGGNTIEYFVNTTFNYPTMAEAYRVAALNGLNRLF
notes: C-terminal Flag tag (EcSTH-Flag), human-codon cDNA, expressed in HeLa cells, anti-Flag M2 purified
Km [10]: 137.1 µM
kcat [10]: 81.73 s⁻¹
Km [11]: 242.8 µM
kcat [11]: 82.73 s⁻¹
